# Key:
# [1] = stated as known; cited from earlier work
# [2] = Antioxidant activity against hydroxyl radicals (degradation of target protein, FIG. 2A); format: biochemical; details: prevention of degradation of target protein
# Excerpt: FIG. 2A is a hydroxyl radical, in which 1 is untreated target protein, 2 is no antioxidant added, 3 is IMDP added, 4 is vitamin C added, 5 is ferulic acid added, 6 is IMDP+vitamin C+ferulic acid added; and
# (§1) Therefore, by coexisting with these antioxidants, the antioxidant effect of IMDP is retained both for hydroxyl radicals and peroxynitrite radicals.
# [3] = Antioxidant activity against peroxynitrite radicals (proteolytic action on target protein, FIG. 2B); format: biochemical; details: prevention of degradation of target protein
# Excerpt: FIG. 2B is a proteolytic action by a peroxynitrite radical.
# as §1
# [4] = stated as known; cited from earlier work; remark: listed apart in the source
compound,measurement,setting,value
CC1=C(/C=C/C(C)=C/C=C/C(C)=C/C=C/C=C(C)/C=C/C=C(C)/C=C/C2=C(C)C(=O)[C@@H](O)CC2(C)C)C(C)(C)C[C@H](O)C1=O [astaxanthin],antioxidant activity against hydroxyl radicals (known),[1],strong antioxidant activity
COc1cc(/C=C/C(=O)O)ccc1O [ferulic acid],antioxidant activity against hydroxyl radicals,[2],strong antioxidant activity
O=C1O[C@H]([C@@H](O)CO)C(O)=C1O [vitamin C],antioxidant activity against peroxynitrite radicals,[3],strong antioxidant activity
same,antioxidant activity against peroxynitrite radicals (known),[4],strong antioxidant activity
vitamin E,antioxidant activity against hydroxyl radicals (known),[1],strong antioxidant activity
